Assay results reported in article PMC7265341, “Quantifying CDK inhibitor selectivity in live cells” (Nature Communications, 2020).
Like-named read-outs stand apart in the source and are kept apart here.

Assays:
CDK8/Cyclin C = CDK8/Cyclin C (Homo sapiens, UniProt P49336); test: NanoBRET live-cell target engagement, NanoLuc-CDK8/Cyclin C in HEK-293; assay type: binding; details: for IC50: CDK8/C; for inhibition at 10 µM: read-out: Inhibition at 10µM (%), CDK8/C
CDK16/Cyclin Y = CDK16/Cyclin Y (Homo sapiens, UniProt Q00536); test: NanoBRET live-cell target engagement, CDK16-NanoLuc/Cyclin Y in HEK-293; assay type: binding; details: CDK16/Y, read-out: Inhibition at 10µM (%)
CDK3/Cyclin E1 = CDK3/Cyclin E1 (Homo sapiens, UniProt Q00526); test: NanoBRET live-cell target engagement, CDK3-NanoLuc/Cyclin E1 in HEK-293; assay type: binding; details: read-out: Inhibition at 10µM (%), CDK3/E1
CDK6/Cyclin D1 = CDK6/Cyclin D1 (Homo sapiens, UniProt Q00534); test: NanoBRET live-cell target engagement, NanoLuc-CDK6/Cyclin D1 in HEK-293; assay type: binding; details: CDK6/D1, read-out: Inhibition at 10µM (%)
CDK1/Cyclin E1 = CDK1/Cyclin E1 (Homo sapiens, UniProt P06493); test: NanoBRET live-cell target engagement, CDK1-NanoLuc/Cyclin E1 in HEK-293; assay type: binding; details: CDK1/E1, read-out: Inhibition at 10µM (%)
CDK19/Cyclin C = CDK19/Cyclin C (Homo sapiens, UniProt Q9BWU1); test: NanoBRET live-cell target engagement, NanoLuc-CDK19/Cyclin C in HEK-293; details: for IC50: IC50 (nM), CDK19/C; for inhibition at 10 µM: read-out: Inhibition at 10µM (%), CDK19/C
CDK9/Cyclin K = CDK9/Cyclin K (Homo sapiens, UniProt P50750); test: NanoBRET live-cell target engagement, NanoLuc-CDK9/Cyclin K in HEK-293; assay type: binding; details: CDK9/K, read-out: Inhibition at 10µM (%)
CDK2/Cyclin E1 = CDK2/Cyclin E1 (Homo sapiens, UniProt P24941); test: NanoBRET live-cell target engagement, CDK2-NanoLuc/Cyclin E1 in HEK-293; assay type: binding; details: CDK2/E1, read-out: Inhibition at 10µM (%)
CDK5/CDK5R1 = CDK5/CDK5R1 (Homo sapiens, UniProt Q00535); test: NanoBRET live-cell target engagement, CDK5-NanoLuc/CDK5R1 in HEK-293; assay type: binding; details: CDK5/CDK5R1, read-out: Inhibition at 10µM (%)
CDK4/Cyclin D1 = CDK4/Cyclin D1 (Homo sapiens, UniProt P11802); test: NanoBRET live-cell target engagement, NanoLuc-CDK4/Cyclin D1 in HEK-293; assay type: binding; details: CDK4/D1, read-out: Inhibition at 10µM (%)
CDK15/Cyclin Y = CDK15/Cyclin Y (Homo sapiens, UniProt Q96Q40); test: NanoBRET live-cell target engagement, NanoLuc-CDK15/Cyclin Y in HEK-293; assay type: binding; details: CDK15/Y, read-out: Inhibition at 10µM (%)
CDK14/Cyclin Y = CDK14/Cyclin Y (Homo sapiens, UniProt O94921); test: NanoBRET live-cell target engagement, CDK14-NanoLuc/Cyclin Y in HEK-293; assay type: binding; details: CDK14/Y, read-out: Inhibition at 10µM (%)
CDK20/Cyclin H = CDK20/Cyclin H (Homo sapiens, UniProt Q8IZL9); test: NanoBRET live-cell target engagement, NanoLuc-CDK20/Cyclin H in HEK-293; assay type: binding; details: CDK20/H, read-out: Inhibition at 10µM (%)
CDK17/Cyclin Y = CDK17/Cyclin Y (Homo sapiens, UniProt Q00537); test: NanoBRET live-cell target engagement, CDK17-NanoLuc/Cyclin Y in HEK-293; assay type: binding; details: CDK17/Y, read-out: Inhibition at 10µM (%)
CDK11A/Cyclin L2 = target: T1, CDK11A/Cyclin L2 (Homo sapiens, UniProt Q9UQ88); test: NanoBRET live-cell target engagement, CDK11A-NanoLuc/Cyclin L2 in HEK-293; assay type: binding; details: CDK11a/L2, read-out: Inhibition at 10µM (%)
T1 sequence (Q9UQ88 1-783): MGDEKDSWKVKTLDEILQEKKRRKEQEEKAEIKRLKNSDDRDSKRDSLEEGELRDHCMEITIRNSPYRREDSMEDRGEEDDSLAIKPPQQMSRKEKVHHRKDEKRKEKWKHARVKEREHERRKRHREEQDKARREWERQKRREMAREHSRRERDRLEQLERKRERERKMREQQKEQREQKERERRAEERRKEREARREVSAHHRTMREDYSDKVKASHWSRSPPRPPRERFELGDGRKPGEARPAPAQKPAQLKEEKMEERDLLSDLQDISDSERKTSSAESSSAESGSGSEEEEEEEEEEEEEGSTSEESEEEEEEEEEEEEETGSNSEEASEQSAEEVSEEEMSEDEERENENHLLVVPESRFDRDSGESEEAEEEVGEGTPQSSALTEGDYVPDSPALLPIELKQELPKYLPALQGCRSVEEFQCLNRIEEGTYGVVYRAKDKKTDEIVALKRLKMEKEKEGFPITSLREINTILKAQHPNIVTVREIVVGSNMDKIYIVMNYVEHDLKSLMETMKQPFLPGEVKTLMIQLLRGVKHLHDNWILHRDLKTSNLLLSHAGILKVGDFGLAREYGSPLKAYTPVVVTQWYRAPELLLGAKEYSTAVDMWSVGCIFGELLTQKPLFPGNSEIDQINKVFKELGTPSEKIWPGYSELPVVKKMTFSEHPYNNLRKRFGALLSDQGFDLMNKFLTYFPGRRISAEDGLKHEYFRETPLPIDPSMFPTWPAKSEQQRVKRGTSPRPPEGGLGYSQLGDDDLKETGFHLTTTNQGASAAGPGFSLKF

CDK7 = CDK7 (Homo sapiens, UniProt P50613); test: NanoBRET live-cell target engagement, NanoLuc-CDK7 in HEK-293; assay type: binding; details: CDK7, read-out: Inhibition at 10µM (%)
CDK10/Cyclin L2 = CDK10/Cyclin L2 (Homo sapiens, UniProt Q15131); test: NanoBRET live-cell target engagement, CDK10-NanoLuc/Cyclin L2 in HEK-293; details: read-out: Inhibition at 10µM (%), CDK10/L2
CDK11B/Cyclin L2 = CDK11B/Cyclin L2 (Homo sapiens, UniProt P21127); test: NanoBRET live-cell target engagement, CDK11B-NanoLuc/Cyclin L2 in HEK-293; assay type: binding; details: CDK11b/L2, read-out: Inhibition at 10µM (%)
CDK18/Cyclin Y = CDK18/Cyclin Y (Homo sapiens, UniProt Q07002); test: NanoBRET live-cell target engagement, CDK18-NanoLuc/Cyclin Y in HEK-293; assay type: binding; details: CDK18/Y, read-out: Inhibition at 10µM (%)
CDK18/Cyclin Y, sequence (Q07002 whole entry): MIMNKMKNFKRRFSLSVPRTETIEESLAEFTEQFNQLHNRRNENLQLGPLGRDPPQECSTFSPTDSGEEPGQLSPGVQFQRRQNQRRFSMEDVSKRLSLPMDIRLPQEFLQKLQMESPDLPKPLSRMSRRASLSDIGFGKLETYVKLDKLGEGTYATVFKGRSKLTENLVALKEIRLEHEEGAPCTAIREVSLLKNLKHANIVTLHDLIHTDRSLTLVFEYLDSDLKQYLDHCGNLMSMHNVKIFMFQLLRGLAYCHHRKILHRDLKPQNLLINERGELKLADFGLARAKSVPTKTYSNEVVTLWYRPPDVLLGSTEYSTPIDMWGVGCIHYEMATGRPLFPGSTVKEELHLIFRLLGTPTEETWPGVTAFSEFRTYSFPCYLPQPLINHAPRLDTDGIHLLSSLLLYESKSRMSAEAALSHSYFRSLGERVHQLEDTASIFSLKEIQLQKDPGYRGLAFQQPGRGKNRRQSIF
CDK18/Cyclin Y, sequence (Q8ND76 whole entry partner): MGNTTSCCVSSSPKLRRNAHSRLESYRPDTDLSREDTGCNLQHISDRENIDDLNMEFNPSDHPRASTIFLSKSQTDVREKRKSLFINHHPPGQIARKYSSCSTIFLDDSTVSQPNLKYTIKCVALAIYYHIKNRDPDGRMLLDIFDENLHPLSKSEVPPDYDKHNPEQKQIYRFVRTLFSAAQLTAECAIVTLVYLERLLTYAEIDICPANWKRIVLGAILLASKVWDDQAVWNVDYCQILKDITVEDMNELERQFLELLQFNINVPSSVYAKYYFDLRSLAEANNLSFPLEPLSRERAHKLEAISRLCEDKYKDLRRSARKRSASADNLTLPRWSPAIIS

CDK3/Cyclin E1, sequence (Q00526 whole entry): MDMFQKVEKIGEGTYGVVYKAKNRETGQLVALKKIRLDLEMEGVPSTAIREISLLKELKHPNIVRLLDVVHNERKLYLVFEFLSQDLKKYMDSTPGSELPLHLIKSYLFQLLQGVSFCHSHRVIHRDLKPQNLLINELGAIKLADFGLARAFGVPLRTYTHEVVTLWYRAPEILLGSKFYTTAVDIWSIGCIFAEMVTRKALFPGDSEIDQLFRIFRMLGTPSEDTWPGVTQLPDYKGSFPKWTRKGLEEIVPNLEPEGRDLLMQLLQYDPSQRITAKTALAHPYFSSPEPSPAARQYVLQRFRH
CDK3/Cyclin E1, sequence (P24864 whole entry partner): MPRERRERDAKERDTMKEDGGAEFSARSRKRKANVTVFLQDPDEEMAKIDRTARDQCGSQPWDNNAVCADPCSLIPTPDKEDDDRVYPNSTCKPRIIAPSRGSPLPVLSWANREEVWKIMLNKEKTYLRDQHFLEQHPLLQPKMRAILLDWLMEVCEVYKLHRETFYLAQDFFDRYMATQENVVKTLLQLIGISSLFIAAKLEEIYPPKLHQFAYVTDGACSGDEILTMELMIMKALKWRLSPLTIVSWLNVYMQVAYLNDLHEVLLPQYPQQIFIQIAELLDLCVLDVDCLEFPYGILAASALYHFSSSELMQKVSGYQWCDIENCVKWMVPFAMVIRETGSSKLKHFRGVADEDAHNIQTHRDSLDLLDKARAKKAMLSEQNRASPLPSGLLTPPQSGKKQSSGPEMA
CDK15/Cyclin Y, sequence (Q96Q40 whole entry): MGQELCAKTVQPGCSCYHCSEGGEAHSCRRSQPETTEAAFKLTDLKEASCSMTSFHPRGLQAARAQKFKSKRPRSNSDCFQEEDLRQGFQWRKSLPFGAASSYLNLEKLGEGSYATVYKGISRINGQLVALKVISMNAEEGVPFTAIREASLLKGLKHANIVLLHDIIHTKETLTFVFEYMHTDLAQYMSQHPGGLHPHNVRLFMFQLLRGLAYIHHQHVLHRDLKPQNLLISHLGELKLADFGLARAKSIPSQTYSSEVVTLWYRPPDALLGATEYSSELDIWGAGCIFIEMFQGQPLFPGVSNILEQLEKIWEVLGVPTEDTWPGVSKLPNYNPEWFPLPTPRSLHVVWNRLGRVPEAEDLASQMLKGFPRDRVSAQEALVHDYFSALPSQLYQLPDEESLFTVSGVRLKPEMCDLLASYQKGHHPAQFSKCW
CDK15/Cyclin Y, sequence (Q8ND76 whole entry partner): as the sequence (Q8ND76 whole entry partner) above
CDK9/Cyclin K, sequence (P50750 whole entry): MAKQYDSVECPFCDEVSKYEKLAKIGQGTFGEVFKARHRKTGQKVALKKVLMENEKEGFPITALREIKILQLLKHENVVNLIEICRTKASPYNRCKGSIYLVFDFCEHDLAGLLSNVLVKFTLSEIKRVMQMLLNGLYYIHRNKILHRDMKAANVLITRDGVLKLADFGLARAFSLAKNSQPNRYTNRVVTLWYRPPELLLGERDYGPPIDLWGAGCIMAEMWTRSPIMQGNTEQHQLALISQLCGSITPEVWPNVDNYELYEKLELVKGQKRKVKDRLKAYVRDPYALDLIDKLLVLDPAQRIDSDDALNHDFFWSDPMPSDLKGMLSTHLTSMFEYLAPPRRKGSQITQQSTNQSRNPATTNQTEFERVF
CDK9/Cyclin K, sequence (O75909 whole entry partner): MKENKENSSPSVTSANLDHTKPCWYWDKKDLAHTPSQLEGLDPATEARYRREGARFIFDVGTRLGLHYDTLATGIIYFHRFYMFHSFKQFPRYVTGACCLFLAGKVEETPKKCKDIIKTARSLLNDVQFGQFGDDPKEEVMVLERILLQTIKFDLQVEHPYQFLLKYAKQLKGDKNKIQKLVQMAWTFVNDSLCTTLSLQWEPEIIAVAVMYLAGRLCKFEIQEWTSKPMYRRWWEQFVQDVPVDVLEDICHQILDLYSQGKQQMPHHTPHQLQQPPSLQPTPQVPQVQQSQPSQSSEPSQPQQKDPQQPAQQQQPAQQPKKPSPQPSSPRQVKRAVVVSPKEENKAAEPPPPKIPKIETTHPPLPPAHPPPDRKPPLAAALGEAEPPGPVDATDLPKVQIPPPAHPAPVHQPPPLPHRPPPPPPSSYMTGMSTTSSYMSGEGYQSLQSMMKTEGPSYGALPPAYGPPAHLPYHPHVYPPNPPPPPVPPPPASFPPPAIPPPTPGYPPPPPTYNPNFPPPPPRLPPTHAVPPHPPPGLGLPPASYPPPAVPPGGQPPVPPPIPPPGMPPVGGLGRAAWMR
CDK10/Cyclin L2, sequence (Q15131 whole entry): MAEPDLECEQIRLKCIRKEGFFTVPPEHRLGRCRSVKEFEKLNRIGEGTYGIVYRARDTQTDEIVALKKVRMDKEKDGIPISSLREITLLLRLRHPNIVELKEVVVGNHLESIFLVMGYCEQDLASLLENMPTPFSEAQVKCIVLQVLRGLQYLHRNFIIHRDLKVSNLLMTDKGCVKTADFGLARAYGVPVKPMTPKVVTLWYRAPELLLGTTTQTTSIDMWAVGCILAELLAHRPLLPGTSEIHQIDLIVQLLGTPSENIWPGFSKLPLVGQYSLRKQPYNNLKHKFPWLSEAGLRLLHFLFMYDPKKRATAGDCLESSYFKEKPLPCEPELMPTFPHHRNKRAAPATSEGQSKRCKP
CDK11B/Cyclin L2, sequence (P21127 1-782 isoform P21127-2): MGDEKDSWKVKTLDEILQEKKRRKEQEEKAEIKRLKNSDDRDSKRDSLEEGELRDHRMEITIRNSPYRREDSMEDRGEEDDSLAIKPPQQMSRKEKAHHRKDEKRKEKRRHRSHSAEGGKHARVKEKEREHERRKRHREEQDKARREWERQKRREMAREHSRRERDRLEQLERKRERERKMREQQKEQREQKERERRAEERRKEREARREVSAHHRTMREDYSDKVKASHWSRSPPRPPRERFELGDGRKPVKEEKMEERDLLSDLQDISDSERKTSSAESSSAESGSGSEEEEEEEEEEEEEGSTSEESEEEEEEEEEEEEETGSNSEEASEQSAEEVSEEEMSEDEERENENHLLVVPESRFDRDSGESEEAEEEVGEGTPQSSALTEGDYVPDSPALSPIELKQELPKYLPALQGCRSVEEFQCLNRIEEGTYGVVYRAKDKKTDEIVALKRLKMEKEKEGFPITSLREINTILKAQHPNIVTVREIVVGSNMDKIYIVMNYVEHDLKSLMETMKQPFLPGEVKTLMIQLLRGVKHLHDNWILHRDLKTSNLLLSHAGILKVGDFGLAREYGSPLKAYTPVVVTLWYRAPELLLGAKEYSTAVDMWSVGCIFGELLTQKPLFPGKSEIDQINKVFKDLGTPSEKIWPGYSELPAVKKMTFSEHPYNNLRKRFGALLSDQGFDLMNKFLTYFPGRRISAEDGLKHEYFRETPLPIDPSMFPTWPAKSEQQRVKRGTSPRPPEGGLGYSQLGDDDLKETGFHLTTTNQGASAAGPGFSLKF
CDK17/Cyclin Y, sequence (Q00537 whole entry): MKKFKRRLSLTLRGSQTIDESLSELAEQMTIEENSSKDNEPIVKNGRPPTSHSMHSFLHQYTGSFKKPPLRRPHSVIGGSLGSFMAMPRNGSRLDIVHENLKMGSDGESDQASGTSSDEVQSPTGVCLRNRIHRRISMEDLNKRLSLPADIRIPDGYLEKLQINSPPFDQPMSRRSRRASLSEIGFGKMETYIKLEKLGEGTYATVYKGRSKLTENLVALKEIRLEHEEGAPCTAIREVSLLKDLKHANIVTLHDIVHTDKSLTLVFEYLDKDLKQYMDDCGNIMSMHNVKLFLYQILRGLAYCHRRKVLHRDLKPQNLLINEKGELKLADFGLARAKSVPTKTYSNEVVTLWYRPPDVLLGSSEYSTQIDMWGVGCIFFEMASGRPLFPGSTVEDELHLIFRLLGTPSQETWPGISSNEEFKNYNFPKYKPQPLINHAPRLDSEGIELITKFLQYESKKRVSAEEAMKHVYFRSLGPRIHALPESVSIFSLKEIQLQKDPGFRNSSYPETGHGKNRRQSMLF
CDK17/Cyclin Y, sequence (Q8ND76 whole entry partner): as the sequence (Q8ND76 whole entry partner) above

SMILES: Cn1cc(-c2ccc(-c3cncc(Cl)c3N3CCC4(CCNC4=O)CC3)cc2)cn1 [CCT251545]
- Kd (CDK8/Cyclin C): ≤ 10 nM
- IC50 (CDK8/Cyclin C; IC50 (nM), experiment 1): 2 nM
- IC50 (CDK8/Cyclin C; IC50 (nM), experiment 2): 2 nM
- IC50 (CDK8/Cyclin C; IC50 (nM), experiment 3): 9 nM
- IC50 (CDK8/Cyclin C; IC50 for CDK/cyclin complexes, live HEK-293, 2 h, mean ± S.E.M. (n=3) or mean (n=2)): 6 nM
- inhibition at 10 µM (CDK8/Cyclin C; average): 97.8%
- inhibition at 10 µM (CDK8/Cyclin C; experiment 1): 98.8%
- inhibition at 10 µM (CDK8/Cyclin C; experiment 2): 96.9%
- inhibition at 10 µM (CDK16/Cyclin Y; experiment 1): 1.8%
- inhibition at 10 µM (CDK16/Cyclin Y; experiment 2): -12.1%
- inhibition at 10 µM (CDK3/Cyclin E1; average): -2.7%
- inhibition at 10 µM (CDK3/Cyclin E1; experiment 1): -4.5%
- inhibition at 10 µM (CDK3/Cyclin E1; experiment 2): -1%
- inhibition at 10 µM (CDK6/Cyclin D1; average): -5%
- inhibition at 10 µM (CDK6/Cyclin D1; experiment 1): -11.6%
- inhibition at 10 µM (CDK6/Cyclin D1; experiment 2): 1.5%
- inhibition at 10 µM (CDK1/Cyclin E1; average): 15.4%
- inhibition at 10 µM (CDK1/Cyclin E1; experiment 1): 21.3%
- inhibition at 10 µM (CDK1/Cyclin E1; experiment 2): 9.4%
- Kd (CDK19/Cyclin C): ≤ 10 nM
- IC50 (CDK19/Cyclin C; experiment 2): 1.5 nM
- IC50 (CDK19/Cyclin C; experiment 3): 10 nM
- inhibition at 10 µM (CDK19/Cyclin C; average): 94%
- inhibition at 10 µM (CDK19/Cyclin C; experiment 1): 97.3%
- inhibition at 10 µM (CDK19/Cyclin C; experiment 2): 90.6%
- inhibition at 10 µM (CDK9/Cyclin K; average): 15.8%
- inhibition at 10 µM (CDK9/Cyclin K; experiment 1): 9.2%
- inhibition at 10 µM (CDK9/Cyclin K; experiment 2): 22.5%
- inhibition at 10 µM (CDK2/Cyclin E1; average): -6.3%
- inhibition at 10 µM (CDK2/Cyclin E1; experiment 1): -6.4%
- inhibition at 10 µM (CDK2/Cyclin E1; experiment 2): -6.1%
- inhibition at 10 µM (CDK5/CDK5R1; average): 16.2%
- inhibition at 10 µM (CDK5/CDK5R1; experiment 1): 23.2%
- inhibition at 10 µM (CDK5/CDK5R1; experiment 2): 9.2%
- inhibition at 10 µM (CDK4/Cyclin D1; average): 6.9%
- inhibition at 10 µM (CDK4/Cyclin D1; experiment 1): -6.1%
- inhibition at 10 µM (CDK4/Cyclin D1; experiment 2): 19.9%
- inhibition at 10 µM (CDK15/Cyclin Y; average): 1.4%
- inhibition at 10 µM (CDK15/Cyclin Y; experiment 1): 2.4%
- inhibition at 10 µM (CDK15/Cyclin Y; experiment 2): 0.46%
- inhibition at 10 µM (CDK14/Cyclin Y; average): -6%
- inhibition at 10 µM (CDK14/Cyclin Y; experiment 1): -5.6%
- inhibition at 10 µM (CDK14/Cyclin Y; experiment 2): -6.4%
- inhibition at 10 µM (CDK20/Cyclin H; experiment 1): 3.3%
- inhibition at 10 µM (CDK20/Cyclin H; experiment 2): 5.3%
- inhibition at 10 µM (CDK17/Cyclin Y; average): 1.3%
- inhibition at 10 µM (CDK17/Cyclin Y; experiment 1): 5.9%
- inhibition at 10 µM (CDK17/Cyclin Y; experiment 2): -3.2%
- inhibition at 10 µM (CDK11A/Cyclin L2; average): 4.8%
- inhibition at 10 µM (CDK11A/Cyclin L2; experiment 1): -0.8%
- inhibition at 10 µM (CDK11A/Cyclin L2; experiment 2): 10.3%
- inhibition at 10 µM (CDK7; average): -8.2%
- inhibition at 10 µM (CDK7; experiment 1): -5.4%
- inhibition at 10 µM (CDK7; experiment 2): -11.1%
- inhibition at 10 µM (CDK10/Cyclin L2; average): 6.5%
- inhibition at 10 µM (CDK10/Cyclin L2; experiment 1): -3.1%
- inhibition at 10 µM (CDK10/Cyclin L2; experiment 2): 16.1%
- inhibition at 10 µM (CDK11B/Cyclin L2; average): -1%
- inhibition at 10 µM (CDK11B/Cyclin L2; experiment 1): -3.6%
- inhibition at 10 µM (CDK11B/Cyclin L2; experiment 2): 1.7%
- inhibition at 10 µM (CDK18/Cyclin Y; average): 10.8%
- inhibition at 10 µM (CDK18/Cyclin Y; experiment 1): 2.3%
- inhibition at 10 µM (CDK18/Cyclin Y; experiment 2): 19.2%
